From the CombiSolv-Exp solvation set (Vermeire and Green 2021)

Test: solvent given as SMILES

CCC=CCC=CCC=CCCCCCCCC(=O)OC
Details	solvation free energy, 298 K [kcal/mol]
in O	-3.47

CC(N)C(=O)C1OS(=O)OCC2C1C1(Cl)C(Cl)=C(Cl)C2(Cl)C1(Cl)Cl (centres undefined)
Details	solvation free energy, 298 K [kcal/mol]
in CCCCCCCCO	-11.5

N#Cc1ccncc1
Details	solvation free energy, 298 K [kcal/mol]
in O	-6.02

COS(C)(=O)=O
Details	solvation free energy, 298 K [kcal/mol]
in O	-4.87

CC1=C(C)C2CCC1C2
Details	solvation free energy, 298 K [kcal/mol]
in O	0.53

O=[N+]([O-])c1cc(Cl)ccc1Cl
Details	solvation free energy, 298 K [kcal/mol]
in C1CCCCC1	-8.11
in CC1CCCCC1	-8.06
in CC#N	-9.34
in CC(C)CC(C)(C)C	-7.63
in CC(C)CCO	-8.13
in CC(C)CO	-8.01
in CC(C)O	-8.07
in CCC(C)O	-7.92
in CCCCCC	-7.77
in CCCCCCC	-7.77
in CCCCCCCC	-7.75
in CCCCCCCCCC	-7.74
in CCCCCCCCCCCC	-7.71
in CCCCCCCCCO	-8.13
in CCCCCCCCO	-8.18
in CCCCCCCO	-8.19
in CCCCCCO	-8.22
in CCCCCO	-8.23
in CCCCO	-8.23
in CCCO	-8.23
in CCO	-8.32
in COC(C)=O	-9.35
in Cc1cccc(C)c1	-9.25
in Cc1ccccc1	-9.28

CC12CCC(=O)C=C1CCC1C2C(O)CC2(C)C1CCC2(O)C(=O)C(O)C(CCCCC(N)=O)C(N)=O (centres undefined)
Details	solvation free energy, 298 K [kcal/mol]
in C=CCCCCCCC=C	-29.8
in C=CCCCCCCCCCCCCCC	-27.4
in O	-33.7

CC1=CC2C(=C(C)CCC2C(C)C)CC1 (centres undefined)
Details	solvation free energy, 298 K [kcal/mol]
in O	-0.4

CCCCN(CCCC)CCCC
Details	solvation free energy, 298 K [kcal/mol]
in O	-4.09

CCC(CC)(CC)CC
Details	solvation free energy, 298 K [kcal/mol]
in CCCCCC	-5.88
in CO	-4.3

CCCCN(CC)c1c([N+](=O)[O-])cc(C(F)(F)F)cc1[N+](=O)[O-]
Details	solvation free energy, 298 K [kcal/mol]
in O	-3.51

c1ccc2c(c1)ccc1c3ccccc3ccc21
Details	solvation free energy, 298 K [kcal/mol]
in CCCCCCCCC=CCCCCCCCC(=O)OCC(COC(=O)CCCCCCCC=CCCCCCCCC)OC(=O)CCCCCCCC=CCCCCCCCC	-13.9
in O	-6.53

Clc1ccccc1
Details	solvation free energy, 298 K [kcal/mol]
in C1CCOC1	-6.04
in C1COCCO1	-5.78
in CC(=O)N(C)C	-5.01
in CC(C)(C)O	-5.03
in CC(C)=O	-5.65
in CC(C)CC(C)(C)C	-4.92
in CC(C)CCO	-5.12
in CC(C)CO	-5.09
in CC(C)O	-4.92
in CC(O)CO	-4.36
in CCC(C)O	-5.09
in CCCCCC	-5.21
in CCCCCCC	-5.17
in CCCCCCCCCC	-4.93
in CCCCCCCCCCCCCCCC	-4.94
in CCCCCO	-5.21
in CCCCCl	-5.59
in CCOC(C)=O	-5.66
in CN(C)C=O	-5.66
in CNC(C)=O	-5.17
in CO	-5.01
in COCCO	-5.23
in Cc1ccc(C)cc1	-5.52
in Cc1ccccc1C	-5.59
in ClCCl	-5.91
in N#Cc1ccccc1	-5.63
in NC=O	-3.58
in O	-1.14
in OCCO	-3.88

CC(=O)Oc1ccccc1C(=O)O
Details	solvation free energy, 298 K [kcal/mol]
in C1CCOC1	-14.3
in C1COCCO1	-14.1
in CC(=O)CC(C)C	-13.2
in CC(=O)OC(C)C	-13.1
in CC(C)(C)O	-13.7
in CC(C)=O	-14.1
in CC(C)CCO	-13.4
in CC(C)CO	-13.2
in CC(C)O	-13.6
in CC(C)OC(C)C	-12.4
in CCC(C)=O	-13.7
in CCC(C)O	-13.5
in CCCC(=O)OC	-13.1
in CCCC(C)O	-13.3
in CCCCCCCCCCO	-12.9
in CCCCCCCO	-13.1
in CCCCCCO	-13.2
in CCCCCO	-13.3
in CCCCO	-13.4
in CCCCOC(C)=O	-13.1
in CCCO	-13.6
in CCO	-14
in CCOC(C)=O	-13.5
in CCOCC	-13.2
in CO	-14.1
in COC(C)(C)C	-13.2
in COC(C)=O	-13.6

OCCCO
Details	solvation free energy, 298 K [kcal/mol]
in O	-9.96

C1CCCCCC1
Details	solvation free energy, 298 K [kcal/mol]
in CC(C)O	-4.24
in CCCCCCCCCCCCCCCC	-4.83
in CCCO	-4.27
in CN1CCCC1=O	-3.99
in CN(C)C=O	-3.79
in CS(C)=O	-3.1
in N#CCCCCC#N	-3.34
in NCCO	-2.41
in O	0.79
in O=Cc1ccco1	-3.85
in OCc1ccco1	-3.74

FS(F)(F)(F)(F)F
Details	solvation free energy, 298 K [kcal/mol]
in Brc1ccccc1	0.67
in C1CCOC1	0.05
in C1COCCO1	0.52
in CC1COC(=O)O1	0.98
in CC#N	0.25
in CC(=O)N(C)C	0.76
in CC(C)(C)O	-0.11
in CC(C)=O	-0.07
in CC(C)CC(C)(C)C	-0.47
in CC(C)CO	0.1
in CCC(C)O	0.26
in CCCCCC	-0.41
in CCCCCCC	-0.32
in CCCCCCCC	-0.23
in CCCCCCCCC	-0.16
in CCCCCCCCCC	-0.06
in CCCCCCCCCCC	0
in CCCCCCCCCCCC	0.06
in CCCCCCCCCCCCC	0.12
in CCCCCCCCCCCCCC	0.15
in CCCCCCCCCCCCCCC	0.18
in CCCCCCCCCCCCCCCC	0.22
in CCCCCCCCCCCO	0.49
in CCCCCCCCCCO	0.47
in CCCCCCCCCO	0.43
in CCCCCCCCO	0.41
in CCCCCCCO	0.37
in CCCCCCO	0.34
in CCCCCO	0.29
in CCCCO	0.26
in CCCO	0.18
in CCO	0.14
in CN(C)C=O	0.83
in CN(C)P(=O)(N(C)C)N(C)C	0.66
in CNC=O	1.02
in CO	0.26
in CS(C)=O	-0.05
in Cc1ccc(C)cc1	0.19
in Cc1cccc(C)c1	0.19
in Cc1ccccc1C	0.27
in ClC(Cl)(Cl)Cl	-0.03
in Clc1ccccc1	0.35
in N#Cc1ccccc1	0.71
in O	3.04
in O=C1CCCC1	0.49
in O=C1CCCCC1	0.52

C=CC(C)(CCC=C(C)C)OC(=O)CCC (centres undefined)
Details	solvation free energy, 298 K [kcal/mol]
in O	-3.38

CCc1cccs1
Details	solvation free energy, 298 K [kcal/mol]
in O	-0.93

O=C(O)c1cccc(Cl)c1
Details	solvation free energy, 298 K [kcal/mol]
in C1CCOC1	-11.2
in C1COCCO1	-10.9
in CC(C)CCO	-10.5
in CC(C)CO	-10.5
in CC(C)O	-10.7
in CC(C)OC(C)C	-10.1
in CCC(C)O	-10.6
in CCCCCCCCCCO	-10.3
in CCCCCCCCO	-10.4
in CCCCCCCO	-10.5
in CCCCCCO	-10.6
in CCCCCO	-10.6
in CCCCCOC(C)=O	-10.1
in CCCCO	-10.6
in CCCCOC(C)=O	-10.2
in CCCO	-10.7
in CCO	-10.7
in CCOC(C)=O	-10.4
in CCOCC	-10.5
in O	-7.03

CCCCCCCCCCCCCCC
Details	solvation free energy, 298 K [kcal/mol]
in O	4.29

CCSc1nc(NC(C)C)nc(NC(C)C)n1
Details	solvation free energy, 298 K [kcal/mol]
in O	-9

COc1cc(C=O)cc(-c2cc(C=O)cc(OC)c2O)c1O
Details	solvation free energy, 298 K [kcal/mol]
in CCC(C)=O	-21.9
in Cc1ccccc1	-19.6
in ClC=CCl	-20.6

O=Cc1ccncc1
Details	solvation free energy, 298 K [kcal/mol]
in O	-7

COC(=O)c1ccc([N+](=O)[O-])cc1
Details	solvation free energy, 298 K [kcal/mol]
in CN(C)C=O	-10.8
in O	-6.76

[2H][2H]
Details	solvation free energy, 298 K [kcal/mol]
in Brc1ccccc1	1.76
in C1CCOC1	1.47
in C1COCCO1	1.72
in CC(C)(C)O	1.46
in CC(C)CC(C)(C)C	1.27
in CC(C)CO	1.53
in CCC(C)O	1.54
in CCCCCCC	1.27
in CCCCCCCC	1.34
in CCCCO	1.53
in Clc1ccccc1	1.65
in O	2.36
in O=C1CCCC1	1.7
in O=C1CCCCC1	1.73

C=CCC
Details	solvation free energy, 298 K [kcal/mol]
in C1CCCCC1	-2.47
in CC#N	-1.86
in CC(C)(C)O	-2.03
in CC(C)CC(C)(C)C	-2.26
in CC(C)CCO	-1.99
in CC(C)CO	-1.98
in CC(C)O	-1.98
in CCC(C)(C)O	-2.1
in CCC(C)CO	-1.98
in CCC(C)O	-1.99
in CCC(O)CC	-2.01
in CCCC(C)O	-2.01
in CCCCC	-2.53
in CCCCCC	-2.49
in CCCCCCC	-2.48
in CCCCCCCC	-2.45
in CCCCCCCCC	-2.43
in CCCCCCCCCC	-2.42
in CCCCCO	-2.01
in CCCCO	-2.01
in CCCO	-2.01
in CN(C)C=O	-1.78
in CO	-1.83
in COC(C)=O	-2.21
in Cc1ccc(C)cc1	-2.33
in Cc1cccc(C)c1	-2.3
in Cc1ccccc1C	-2.31
in ClC(Cl)(Cl)Cl	-2.5
in O	1.36
in O=CN1CCOCC1	-1.28

CCCCCCCCCCCCc1ccccc1
Details	solvation free energy, 298 K [kcal/mol]
in CCC(C)=O	-11.5
in CCCCCCC	-11.8
in CCO	-10
in O=Cc1ccco1	-10.4
in OCCOCCO	-7.69

CCCCCCN
Details	solvation free energy, 298 K [kcal/mol]
in CCCCCCC	-5.51
in O	-4
